molecular target: T1, recombinant human Estrogen Receptor alpha ligand binding domain, residues 307-554 (ER alpha-LBD (GST)) (Homo sapiens, UniProt P03372); test: ERα binding assay (LanthaScreen TR-FRET competition); conditions: TR-FRET competition with Fluormone ES2 tracer, 4 hours at room temperature; single experiment or average of two or more
T1 construct: made in house
T1 sequence (P03372 307-554): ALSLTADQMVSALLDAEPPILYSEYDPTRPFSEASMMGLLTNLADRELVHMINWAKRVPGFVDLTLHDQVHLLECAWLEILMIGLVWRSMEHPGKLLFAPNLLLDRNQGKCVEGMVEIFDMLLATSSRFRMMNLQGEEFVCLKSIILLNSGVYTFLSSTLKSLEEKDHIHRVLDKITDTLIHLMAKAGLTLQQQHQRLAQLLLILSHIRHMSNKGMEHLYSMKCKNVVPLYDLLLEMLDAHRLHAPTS

| Compound | IC50 [nM] |
| --- | --- |
| Cc1ncsc1-c1ccc([C@H](C)NC(=O)[C@@H]2C[C@@H](O)CN2C(=O)[C@@H](NC(=O)CCOCCCCCCCOc2cc(F)c([C@@H]3c4[nH]c5ccccc5c4C[C@@H](C)N3CC(C)(C)F)c(F)c2)C(C)(C)C)cc1 [Example 114, (2S,4R)-1-((S)-2-(3-((7-(3,5-difluoro-4-((1R,3R)-2-(2-fluoro-2-methylpropyl)-3-methyl-2,3,4,9-tetrahydro-1H-pyrido[3,4-b]indol-1-yl)phenoxy)heptyl)oxy)propanamido)-3,3-dimethylbutanoyl)-4-hydroxy-N—((S)-1-(4-(4-methylthiazol-5-yl)phenyl)ethyl)pyrrolidine-2-carboxamide] | 0.9 |
| Cc1ncsc1-c1ccc(CNC(=O)[C@@H]2C[C@@H](O)CN2C(=O)[C@@H](NC(=O)CCCOc2cccc(COc3cc(F)c([C@@H]4c5[nH]c6ccccc6c5C[C@@H](C)N4CC(C)(C)F)c(F)c3)n2)C(C)(C)C)cc1 [Example 162, (2S,4R)-1-((S)-2-(4-((6-((3,5-Difluoro-4-((1R,3R)-2-(2-fluoro-2-methylpropyl)-3-methyl-2,3,4,9-tetrahydro-1H-pyrido[3,4-b]indol-1-yl)phenoxy)methyl)pyridin-2-yl)oxy)butanamido)-3,3-dimethylbutanoyl)-4-hydroxy-N-(4-(4-methylthiazol-5-yl)benzyl)pyrrolidine-2-carboxamide] | 1.1 |
| Cc1ncsc1-c1ccc(CNC(=O)[C@@H]2C[C@@H](O)CN2C(=O)[C@@H](NC(=O)COCCCCCCCCOc2cc(F)c([C@@H]3c4[nH]c5ccccc5c4C[C@@H](C)N3CC(C)(C)F)c(F)c2)C(C)(C)C)cc1 [Example 12, (2S,4R)-1-((S)-2-(2-((8-(3,5-Difluoro-4-((1R,3R)-2-(2-fluoro-2-methylpropyl)-3-methyl-2,3,4,9-tetrahydro-1H-pyrido[3,4-b]indol-1-yl)phenoxy)octyl)oxy)acetamido)-3,3-dimethylbutanoyl)-4-hydroxy-N-(4-(4-methylthiazol-5-yl)benzyl)pyrrolidine-2-carboxamide] | 1.6 |
| Cc1ncsc1-c1ccc([C@H](C)NC(=O)[C@@H]2C[C@@H](O)CN2C(=O)[C@@H](NC(=O)COCCOCCCCCOc2cc(F)c([C@@H]3c4[nH]c5ccccc5c4C[C@@H](C)N3CC(C)(C)F)c(F)c2)C(C)(C)C)cc1 [Example 156, (2S,4R)-1-((S)-2-(2-(2-((5-(3,5-Difluoro-4-((1R,3R)-2-(2-fluoro-2-methylpropyl)-3-methyl-2,3,4,9-tetrahydro-1H-pyrido[3,4-b]indol-1-yl)phenoxy)pentyl)oxy)ethoxy)acetamido)-3,3-dimethylbutanoyl)-4-hydroxy-N—((S)-1-(4-(4-methylthiazol-5-yl)phenyl)ethyl)pyrrolidine-2-carboxamide] | 0.6 |
| Cc1ncsc1-c1ccc(CNC(=O)[C@@H]2C[C@@H](O)CN2C(=O)[C@@H](NC(=O)COCCCOCCOc2ccc([C@@H]3c4[nH]c5ccccc5c4C[C@@H](C)N3CC(F)F)nc2)C(C)(C)C)cc1 [Example 26, (2S,4R)-1-((S)-2-(2-(3-(2-((6-((1S,3R)-2-(2,2-Difluoroethyl)-3-methyl-2,3,4,9-tetrahydro-1H-pyrido[3,4-b]indol-1-yl)pyridin-3-yl)oxy)ethoxy)propoxy)acetamido)-3,3-dimethylbutanoyl)-4-hydroxy-N-(4-(4-methylthiazol-5-yl)benzyl)pyrrolidine-2-carboxamide] | 25 |
| Cc1ncsc1-c1ccc(CNC(=O)[C@@H]2C[C@@H](O)CN2C(=O)[C@@H](NC(=O)COCCCCCNCCOc2cc(F)c([C@@H]3c4[nH]c5ccccc5c4C[C@@H](C)N3CC(C)(C)F)c(F)c2)C(C)(C)C)cc1 [Example 48, (2S,4R)-1-((S)-2-(2-((5-((2-(3,5-difluoro-4-((1R,3R)-2-(2-fluoro-2-methylpropyl)-3-methyl-2,3,4,9-tetrahydro-1H-pyrido[3,4-b]indol-1-yl)phenoxy)ethyl)amino)pentyl)oxy)acetamido)-3,3-dimethylbutanoyl)-4-hydroxy-N-(4-(4-methylthiazol-5-yl)benzyl)pyrrolidine-2-carboxamide] | 1 |
| Cc1ncsc1-c1ccc(CNC(=O)[C@@H]2C[C@@H](O)CN2C(=O)[C@@H](NC(=O)COCCOCCCCCOc2cnc([C@@H]3c4[nH]c5ccccc5c4C[C@@H](C)N3CC(F)(F)F)c(F)c2)C(C)(C)C)cc1 [Example 165, (2S,4R)-1-((S)-2-(2-(2-((5-((5-Fluoro-6-((1S,3R)-3-methyl-2-(2,2,2-trifluoroethyl)-2,3,4,9-tetrahydro-1H-pyrido[3,4-b]indol-1-yl)pyridin-3-yl)oxy)pentyl)oxy)ethoxy)acetamido)-3,3-dimethylbutanoyl)-4-hydroxy-N-(4-(4-methylthiazol-5-yl)benzyl)pyrrolidine-2-carboxamide] | 11.4 |
| Cc1ncsc1-c1ccc([C@H](C)NC(=O)[C@@H]2C[C@@H](O)CN2C(=O)[C@@H](NC(=O)COCCOCCCCOc2cc(F)c([C@@H]3c4[nH]c5ccccc5c4C[C@@H](C)N3CC(C)(C)F)c(F)c2)C(C)(C)C)cc1 [Example 153, (2S,4R)-1-((S)-2-(2-(2-(4-(3,5-Difluoro-4-((1R,3R)-2-(2-fluoro-2-methylpropyl)-3-methyl-2,3,4,9-tetrahydro-1H-pyrido[3,4-b]indol-1-yl)phenoxy)butoxy)ethoxy)acetamido)-3,3-dimethylbutanoyl)-4-hydroxy-N—((S)-1-(4-(4-methylthiazol-5-yl)phenyl)ethyl)pyrrolidine-2-carboxamide] | 0.3 |
| Cc1ncsc1-c1ccc(CNC(=O)[C@@H]2C[C@@H](O)CN2C(=O)[C@@H](NC(=O)COCCCCCOc2ccc([C@@H]3c4[nH]c5ccccc5c4C[C@@H](C)N3CC(F)F)nc2)C(C)(C)C)cc1 [Example 17, (2S,4R)-1-((S)-2-(2-((5-((6-((1S,3R)-2-(2,2-Difluoroethyl)-3-methyl-2,3,4,9-tetrahydro-1H-pyrido[3,4-b]indol-1-yl)pyridin-3-yl)oxy)pentyl)oxy)acetamido)-3,3-dimethylbutanoyl)-4-hydroxy-N-(4-(4-methylthiazol-5-yl)benzyl)pyrrolidine-2-carboxamide] | 5.5 |
| Cc1ncsc1-c1ccc(CNC(=O)[C@@H]2C[C@@H](O)CN2C(=O)[C@@H](NC(=O)COc2cccc(COc3cc(F)c([C@@H]4c5[nH]c6ccccc6c5C[C@@H](C)N4CC(C)(C)F)c(F)c3)c2)C(C)(C)C)cc1 [Example 20, (2S,4R)-1-((S)-2-(2-(3-((3,5-difluoro-4-((1R,3R)-2-(2-fluoro-2-methylpropyl)-3-methyl-2,3,4,9-tetrahydro-1H-pyrido[3,4-b]indol-1-yl)phenoxy)methyl)phenoxy)acetamido)-3,3-dimethylbutanoyl)-4-hydroxy-N-(4-(4-methylthiazol-5-yl)benzyl)pyrrolidine-2-carboxamide] | 1 |
| Cc1ncsc1-c1ccc(CNC(=O)[C@@H]2C[C@@H](O)CN2C(=O)[C@@H](NC(=O)CNCc2ccc(COc3cc(F)c([C@@H]4c5[nH]c6ccccc6c5C[C@@H](C)N4CC(C)(C)F)c(F)c3)nc2)C(C)(C)C)cc1 [Example 146] | 0.8 |
